From patent US6838090B2, “Water-insoluble drug delivery system” (priority 1998, dated 2005)

Experiments:
[1] = system: p185; assay: p185 expression in xenografts by western blot analysis; assay type: in vivo, SCID mice bearing human breast cancer xenografts; conditions: 40 mg/kg i.v. single dose
[2] = system: HSP70; assay: HSP70 level in tumor tissue by western blot analysis; assay type: in vivo, SCID mice bearing human breast cancer xenografts; conditions: 40 mg/kg i.v. single dose
[3] = system: HSP90; conditions: 40 mg/kg i.v. single dose; 48-hours and 72-hours after administration

concentration in tumor tissue (mouse, in vivo, iv, 40 mg/kg) [µg/g] | time remaining detectable in tumor tissue after administration (mouse, in vivo, iv, 40 mg/kg) | Compound | increase of p185 expression in xenografts over untreated mice ([1]; 2-hours after administration) [fold] | p185 expression in xenografts below control levels ([1]; 7-hours, 24-hours and 48-hours after administration) [%] | HSP70 concentration in tumor tissue of treated vs untreated mice ([2]; 4-hours and 7-hours after administration) | HSP70 concentration in tumor tissue of treated vs untreated mice ([2]; 48-hours and 72-hours after administration) | HSP90 concentration in tumor tissue of treated vs untreated mice [3] | concentration in normal tissues (single intravenous dose of 40 mg/kg, SCID mice, 7-hours post-administration, HPLC)
0.5 to 1 | more than 48 hours | CO[C@H]1C=C/C=C(\C)C(=O)NC2=CC(=O)C(N)=C(C[C@@H](C)C[C@H](OC)[C@H](O)[C@@H](C)/C=C(\C)[C@@H]1OC(N)=O)C2=O (stereo in doubt) [Example 17-AG] | – | – | – | – | – | –
– | – | C=CCNC1=C2C[C@@H](C)C[C@H](OC)[C@H](O)[C@@H](C)/C=C(\C)[C@H](OC(N)=O)[C@@H](OC)/C=C\C=C(/C)C(=O)NC(=CC1=O)C2=O [Example 17-AAG, 17-allylaminogeldanamycin] | 2 | 30 | lower | elevated | elevated | below detection levels
